Source: patent US9187406B2 (The Research Foundation of State University of New York, priority 2009, dated 2015)
“Also recorded” adds a separate entry of the source. Read-outs that look alike come from different tables or passages of the source.

What was measured:
[1] = target: chromatographically-purified MMP-13 (Collagenase-3) (Homo sapiens (Human), UniProt P45452); test: MMP-13 inhibition in vitro, octapeptide/HPLC; assay type: biochemical; settings: for Ratio = IC50 test compound/IC50 standard, MMP-13: standard 1,10-phenanthroline
[2] = target: chromatographically-purified MMP-2 (Homo sapiens (Human), UniProt P08253); test: MMP-2 inhibition in vitro, octapeptide/HPLC; assay type: biochemical; settings: for Ratio = IC50 test compound/IC50 standard, MMP-2: standard 1,10-phenanthroline
Chain of chromatographically-purified MMP-2 (P08253 110-660): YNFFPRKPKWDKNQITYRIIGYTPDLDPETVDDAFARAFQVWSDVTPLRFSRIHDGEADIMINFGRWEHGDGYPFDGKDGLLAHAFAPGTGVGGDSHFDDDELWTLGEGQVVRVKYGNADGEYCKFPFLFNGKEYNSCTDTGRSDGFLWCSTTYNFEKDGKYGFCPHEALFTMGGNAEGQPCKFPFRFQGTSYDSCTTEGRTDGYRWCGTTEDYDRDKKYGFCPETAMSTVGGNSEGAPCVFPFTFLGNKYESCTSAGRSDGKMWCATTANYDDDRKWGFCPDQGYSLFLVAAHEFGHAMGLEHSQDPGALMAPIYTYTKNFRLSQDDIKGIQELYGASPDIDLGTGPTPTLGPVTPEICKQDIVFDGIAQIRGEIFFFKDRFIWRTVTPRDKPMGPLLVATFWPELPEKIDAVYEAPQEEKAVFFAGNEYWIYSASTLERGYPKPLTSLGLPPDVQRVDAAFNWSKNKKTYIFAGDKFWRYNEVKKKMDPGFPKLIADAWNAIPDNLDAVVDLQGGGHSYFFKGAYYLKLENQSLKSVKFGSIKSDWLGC

purified human PMN MMP-8 = purified human PMN MMP-8 (Homo sapiens (Human), UniProt P22894); test: MMP-8 inhibition, synthetic octapeptide substrate, tripeptide product by HPLC; assay type: biochemical
Chain of purified human PMN MMP-8 (P22894 101-467): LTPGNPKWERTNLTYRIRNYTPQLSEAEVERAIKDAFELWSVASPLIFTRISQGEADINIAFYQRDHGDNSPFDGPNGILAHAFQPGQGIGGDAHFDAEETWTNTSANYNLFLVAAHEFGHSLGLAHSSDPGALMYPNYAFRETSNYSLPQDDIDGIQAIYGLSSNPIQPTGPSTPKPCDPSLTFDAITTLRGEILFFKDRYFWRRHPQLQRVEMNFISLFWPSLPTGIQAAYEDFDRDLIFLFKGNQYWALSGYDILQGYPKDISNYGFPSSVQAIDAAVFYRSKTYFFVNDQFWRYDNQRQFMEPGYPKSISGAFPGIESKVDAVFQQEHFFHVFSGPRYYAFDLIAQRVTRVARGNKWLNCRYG

[3] = target: MMP-9 (human leukocyte gelatinase) (Homo sapiens (Human), UniProt P14780); test: MMP-9 inhibition in vitro, octapeptide/HPLC; assay type: biochemical
Chain of MMP-9 (human leukocyte gelatinase) (P14780 94-707): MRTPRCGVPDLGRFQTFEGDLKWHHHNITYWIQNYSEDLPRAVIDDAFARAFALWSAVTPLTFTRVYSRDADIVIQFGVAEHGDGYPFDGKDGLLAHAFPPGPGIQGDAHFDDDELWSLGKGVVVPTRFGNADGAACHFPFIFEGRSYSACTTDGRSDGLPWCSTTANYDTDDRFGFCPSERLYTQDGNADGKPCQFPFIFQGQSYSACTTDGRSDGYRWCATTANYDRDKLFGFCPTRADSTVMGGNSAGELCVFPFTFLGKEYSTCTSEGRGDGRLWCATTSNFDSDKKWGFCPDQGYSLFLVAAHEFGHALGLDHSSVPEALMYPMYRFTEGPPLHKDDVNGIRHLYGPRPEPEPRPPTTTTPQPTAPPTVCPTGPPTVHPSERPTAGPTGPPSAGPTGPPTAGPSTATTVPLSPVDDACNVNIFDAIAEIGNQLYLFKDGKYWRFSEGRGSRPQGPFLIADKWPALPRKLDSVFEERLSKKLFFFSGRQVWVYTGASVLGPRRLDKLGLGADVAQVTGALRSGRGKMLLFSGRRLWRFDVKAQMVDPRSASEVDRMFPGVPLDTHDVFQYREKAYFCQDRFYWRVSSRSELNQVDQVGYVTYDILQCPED
Source text: In contrast all three chemically-modified curcumins at 100 μm final concentration inhibited gelatinase activity by 68-100% (FIG. 6 and Table 6).

[4] = Solubility in aqueous solutions; assay type: physicochemical
[5] = system: neonatal rat ventricular myocytes; test: Hydrogen peroxide induced LDH release; assay type: cell-based; settings: 10 μM, H2O2 100 μM
Experimental: Test compounds and concentrations (MMP inhibitors, MMPi): • 1. GM-6001: 10 μM • 2. ONO-4817: 10 μM • 3.
Neonatal rat ventricular myocytes, serum starved for 24 h, were treated with the inhibitors 1 h prior to the addition of 100 μM of hydrogen peroxide (Sigma). LDH release in the conditioned media was quantified using CytoTox-ONE Homogeneous Membrane Integrity Assay reagent (Promega) at the indicated time points.

[6] = Extractability/recovery from human serum by HPLC
Experimental: Detection of compounds & extractability/recovery from human serum (for future use to determine in vivo pharmacokinetics) was achieved using HPLC. The HPLC detection method is briefly described herein. 50 μl of buffer or human serum containing 166.67 μM, 16.67 μM and 1.67 μM of the compounds were incubated with 100 μl pre-cooled (−10° C.) extraction solvent containing CAN-MeOH-0.5M oxalic acid at a ratio of 60:30:10. The mixture was vortexed and centrifuged at 10,000 rpm for 10 min. The supernatant was then aliquoted and injected into an HPLC for analysis. Stock solutions of the compounds were made 100× in DMSO, then further diluted with buffer or serum.

human monocytes [7] = test: Cytotoxicity in human monocytes (MTS); assay type: cell-based
MMP-2 = MMP-2 (Mus musculus (Mouse), UniProt P33434); settings: 15 μM; cited from earlier work
human monocytes [8] = test: Cytotoxicity in human monocytes (MTS); assay type: cell-based; remark: listed apart in the source
Experimental: (§1) Briefly, human peripheral blood monocytes (HMs) were isolated from a leukocyte concentrate by density gradient centrifugation (Lymphoprep) and the isolated HMs cultured (2 h, 37° C.) to remove non-adherent cells. The adherent HMs were cultured for 18 h (1×10^6 cells/well, 24-well plates)±endotoxin (LPS)±different compounds dissolved in DMSO (the final concentration of DMSO in the RPMI serum-free culture media with Pen./Strep. antibiotics was no greater than 0.5%). After incubation, the proinflammatory cytokines, TNFα, IL-1β, MCP-1 and IL-6 were measured in the conditioned media by ELISA and cytotoxicity was assessed by measuring the absorbance (490 nm) of formazan produced by reduction of MTS. The HMs alone ±0.1-0.5% DMSO produced minimal levels of these pro-inflammatory cytokines. However, addition of 100 ng/ml or 10 μg/ml of LPS both dramatically stimulated cytokine production.

TNF-α = TNF-α production by LPS-stimulated monocytes (ELISA); assay type: cell-based, human
Experimental: as §1

IC50 [1] | Ratio = IC50 test compound/IC50 standard, MMP-13 [1] | IC50 ([2]; read-out: IC50 MMP-2) | Ratio = IC50 test compound/IC50 standard, MMP-2 [2] | IC50 [3] | Compound | also measured
4 µM | 1.0 | 70 µM | 1.0 | 9 µM | c1cnc2c(c1)ccc1cccnc12 [1,10-O-phenanthroline, reference compound] | IC50 (purified human PMN MMP-8; Table 1 experiments, read-out: IC50 against purified hMMP-8): 10 to 35 µM; Ratio of each IC50 to IC50 of 1,10-O-phenanthroline (purified human PMN MMP-8; hMMP-8): 1 = 35 μM 1 = 10 μM
– | – | – | – | – | COC(=O)C(C(=O)/C=C/c1ccccc1)C(=O)/C=C/c1ccccc1 [Compound 2] | IC50 against purified hMMP-8 (purified human PMN MMP-8; Table 1 experiments): did not show a dose response; also recorded: No dose response
8 µM | 2.0 | 70 µM | 1.0 | 6 µM | COC(=O)C(C(=O)/C=C/c1ccc(O)cc1)C(=O)/C=C/c1ccc(O)cc1 [Compound 3, 1,7-Bis(4-hydroxyphenyl)-4-methoxycarbonylhepta-1E,6E-dien-3,5-dione] | IC50 (purified human PMN MMP-8; Example 7 experiment, 1 mM Ca++, 37° C., read-out: IC50, human neutrophil collagenase (MMP-8)): ≤ 5 µM; Solubility in aqueous solutions (comparative) [4]: more soluble in aqueous solutions than compound 1
250 µM | 62.5 | > 250 µM | >3.6 | 17 µM | COc1cc(/C=C/C(=O)CC(=O)/C=C/c2ccc(N(C)C)cc2)ccc1O [Compound 4] | –
– | – | 85 µM | – | – | COc1cc(/C=C/C(=O)C(C(=O)/C=C/c2ccc(O)c(OC)c2)C(=O)Nc2ccccc2)ccc1O [Compound 6, 1,7-Bis(4-hydroxy-3-methoxyphenyl)-4-N-phenylaminocarbonylhepta-1E,6E-dien-3,5-dione] | –
< 1 µM | <0.3 | 125 µM | 1.8 | – | O=C(/C=C/c1ccc(O)cc1)C(C(=O)/C=C/c1ccc(O)cc1)C(=O)Nc1ccccc1 [Compound 7, 1,7-Bis(4-hydroxyphenyl)-4-N-phenylaminocarbonylhepta-1E,6E-dien-3,5-dione] | –
45 µM | 11.3 | – | – | – | CN(C)c1ccc(/C=C/C(=O)C(C(=O)/C=C/c2ccc(N(C)C)cc2)C(=O)Nc2ccccc2)cc1 [Compound 8, 1,7-Bis(4-dimethylaminophenyl)-4-N-phenylaminocarbonylhepta-1E,6E-dien-3,5-dione] | IC50 MMP-2 (μM) [2]: Unmeasurable*
– | – | – | – | – | CNC(=O)[C@H](Cc1c[nH]c2ccccc12)NC(=O)[C@@H](CC(=O)NO)CC(C)C [GM-6001, reference compound] | Effect on LDH release [5]: did not affect LDH release
– | – | – | – | – | CCOCOC[C@H](C[C@H](C)C(=O)NO)NC(=O)c1ccc(Oc2ccccc2)cc1 [ONO-4817, reference compound] | Effect on LDH release [5]: did not affect LDH release
– | – | – | – | 29 µM | COc1cc(/C=C/C(=O)CC(=O)/C=C/c2ccc(O)c(OC)c2)ccc1O [curcumin] | IC50 [2]: 85 µM; Recovery from human serum ([6]; HPLC after solvent extraction): 83-94%; recovery ([6]; human, human serum): 83 to 94%; Cytotoxicity Monocytes @ 5 h incubation (human monocytes [7]; 10 uM): 10 uM- 0%; Cytotoxicity Monocytes @ 5 h incubation (human monocytes [7]; 20 uM): 20 uM- 20%; Cytotoxicity Monocytes @ 5 h incubation (human monocytes [7]; 50 uM): 50 uM- 50%; Effect on MMP-2 activity (MMP-2): significant inhibitory effect; Solubility in aqueous solutions (comparative) [4]: insoluble; Maximum Inhibition At 100 μM compound, MMP-9 ([3]; 100 μM): 58%; Cytotoxicity Monocytes @ 18 h incubation (human monocytes [8]; 10 uM): 10 uM- 0%; Cytotoxicity Monocytes @ 18 h incubation (human monocytes [8]; 20 uM): 20 uM- 20%; Cytotoxicity Monocytes @ 18 h incubation (human monocytes [8]; 50 uM): 50 uM- 77%; Cytotoxicity in human monocyte culture (human monocytes [8]; 50 and 100 μM): significant cytotoxicity; Decrease of TNFα production by endotoxin-stimulated human monocytes (TNF-α; 10 and 20 μM): no effect; Decrease of TNFα production by endotoxin-stimulated human monocytes (TNF-α; 50 and 100 μM): 80-90%
